The text below walks through data of patent publication EP1144412B1, “IMMUNOSUPPRESSIVE EFFECTS OF PTERIDINE DERIVATIVES” (4 AZA Bioscience nv, priority 1998, dated 2000).

Assay [1] has as its system Peripheral blood mononuclear cells (PBMC). In words: Mixed lymphocyte reaction (MLR), [3H]-thymidine incorporation. To be noted: Homo sapiens. The format is cell-based. An excerpt:
(§1) Various models may be used for testing an immunosuppressive effect. In vivo, for example, different transplantation models are available. They are strongly influenced by different immunogenicities, depending on the donor and recipient species used and depending on the nature of the transplanted organ. The survival time of transplanted organs can thus be used to measure the suppression of the immune response. In vitro, there exist also various models. The most used are lymphocyte activation tests. Usually activation is measured via lymphocyte proliferation. Inhibition of proliferation thus always means immunosuppression under the experimental conditions applied. There exist different stimuli for lymphocyte activation: • coculture of lymphocytes of […] (MLR = mixed lymphocyte reaction): lymphocytes expressing different minor and major antigens of the HLA-DR type (= alloantigens) activate each other non-specifically. • CD3 assay: here there is an activation of the T-lymphocytes via an exogenously added antibody (OKT3). This antibody reacts against the CD3 molecule located on the lymphocyte membrane. This molecule has a costimulatory function. […] This molecule is also located on the lymphocyte membrane, and delivers strong costimulatory signals.
Peripheral blood mononuclear cells (PBMC) were isolated from heparinized peripheral blood by density gradient centrifugation over Lymphoprep (Nycomed, Maorstua, Norway). Allogeneic PBMC or EBV-transformed human B cells [RPMI1788 (ATCC name CCL156)] which strongly express B7-1 and B7-2 were used as stimulator cells after irradiation with 30 Gy. MLR was performed in triplicate wells. After 5 days incubation at 37EC, 1 µCi [^3H]-thymidine was added to each cup. After a further 16 hours incubation, cells were harvested and counted in a β-counter.
The percent suppression of proliferation by drugs was counted using the formula Percent inhibition =((cpm + drugs) - cpm Cult. Med)/((cpm - drugs) - cpm Cult. Med.)x 100 [formula]
(In general: Dividing cells build labelled thymidine or BrdU into new DNA.)

In assay [2] the test system is Highly purified T cells. In words: T cell proliferation induced by anti-CD3 mAb + PMA (BrdU incorporation). The format is cell-based, Human. To be noted: Homo sapiens, T-cell.
Source text: as §1
(§2) T cells were purified by removing non-T cells. Briefly,monocytes were removed by cold agglutination. The resulting lymphoid cells were further purified by a cell enrichment immunocolumn [Cellect Human T (Biotex, Edmonton, Alberta, Canada)] by a process of negative selection.
(§3) Measurements of T cell proliferations induced by anti-CD3 mAb + PMA or anti-CD28 mAb + PMA
(§4) Highly purified T cells (10^6/ml) were stimulated by immobilized anti-CD3 àr anti-CD28 mAb in the presence of PMA. Anti-CD3 mAb (CLB-CD3; CLB, Amsterdam, The Netherlands) were fixed on the 96-microwell plates by incubating the wells with 50 µl of mAb solution (1/800 dilution in culture medium). Anti-CD28 mAb (CLB-CD28; CLB, Amsterdam, The Netherlands) 50 µl (1/650 dilution in culture medium) was added directly to the wells. Further, 20 µl PMA (Sigma, St. Louis, MO, USA) solution (final concentration: 0.5 ng/ml) was added. Subsequently, 20 µl of immunosuppressants were added by serial dilution in triplicate wells. Finally 100 µl of the T cell suspension (10^6/ml) was added. After 48-hour incubation at 37EC in 5% CO2 20 Φl BrdU (100 ΦM solution) (Cell Proliferation Elisa, Boehringer-Mannheim Belgium) was added to each well. After a further overnight incubation the T cell proliferation was measured using a colorimetric immunoassay for qualification of cell proliferation based on measurements of the incorporation of BrdU during DNAsynthesis. The optical density (OD) was measured by a Behring EL311 plate reader at 450 nm (reference wavelength: 690 nm). The percent suppression of proliferation by drugs was counted using the formula: Per cent inhibition =((OD + drugs) - (OD Cult. Med.))/((OD - drugs) - (OD Cult. Med.))x 100 [formula]

Assay [3] relates to Highly purified T cells. Put plainly: T cell proliferation induced by anti-CD28 mAb + PMA (BrdU incorporation). It counts as cell-based, Human. To be noted: Homo sapiens, T-cell.
Source text: as §1, §2, §3, §4

Where [4] appears, read: Table II, read-out: IC50 in µM of pteridine derivative MLR.
Where [5] appears, read: untitled structure table, no unit printed there, same values in Table II as IC50 in µM, read-out: MLR.
[6] abbreviates: Table II, read-out: IC50 in µM of pteridine derivative ACD3.
Setting [7] is: untitled structure table, no unit printed there, same values in Table II as IC50 in µM, read-out: aCD3.
Setting [8] is: Table II, read-out: IC50 in µM of pteridine derivative aCD28.
Where [9] appears, read: untitled structure table, no unit printed there, same values in Table II as IC50 in µM, read-out: aCD28.

Read-outs that look alike come from different tables or passages of the source.

Turning to `Nc1nc(NO)c2nc(-c3ccccc3)cnc2n1` [Compound 13, 2-amino-4-hydroxylamino-6-phenylpteridine], the IC50 in assay [1] (setting [4]) is 140 µM; in assay [1] (setting [5]), 140 µM; in assay [2] (setting [6]), over 200 µM; in assay [2] (setting [7]), over 200 µM; in assay [3] (setting [8]), over 200 µM; in assay [3] (setting [9]), over 200 µM.

As for `CN(C)c1nc(N)nc2ncc(-c3ccccc3)nc12` [Compound 14, 2-amino-4-dimethylamino-6-phenylpteridine], the IC50 in assay [1] (setting [4]) amounted to 5 µM; in assay [1] (setting [5]), 5 µM; in assay [2] (setting [6]), 15 µM; in assay [2] (setting [7]), 15 µM; in assay [3] (setting [8]) it was 15 µM; in assay [3] (setting [9]), 15 µM.

Regarding `Cc1ccc(-c2cnc3nc(N)nc(N(C)C)c3n2)cc1` [Compound 15, 2-amino-4-dimethylamino-6-(4-tolyl)pteridine], the IC50 was determined as 3.6 µM in assay [1] (setting [4]); 3.6 µM in assay [1] (setting [5]); 4.5 µM in assay [2] (setting [6]); 4.5 µM in assay [2] (setting [7]); 3.9 µM in assay [3] (setting [8]); 3.9 µM in assay [3] (setting [9]).

Regarding `COc1ccc(-c2cnc3nc(N)nc(N(C)C)c3n2)cc1` [Compound 16, 2-amino-4-dimethylamino-6-(4-methoxyphenyl)pteridine], the IC50 in assay [1] (setting [4]) turned out to be 12 µM; in assay [1] (setting [5]), 12 µM; in assay [2] (setting [6]), 7.5 µM; in assay [2] (setting [7]), 7.5 µM; in assay [3] (setting [8]), 7.5 µM; in assay [3] (setting [9]), 7.5 µM.

Turning to `COCCOCc1cnc2nc(N)nc(N)c2n1` [Compound 17, 2,4-diamino-6-methoxyethoxymethyl pteridine], the IC50 was over 200 µM in assay [1] (setting [4]); over 200 µM in assay [1] (setting [5]); 180 µM in assay [2] (setting [6]); 180 µM in assay [2] (setting [7]); 18 µM in assay [3] (setting [8]); 18 µM in assay [3] (setting [9]).

Consider `Nc1nc(N)c2nc(CNCc3ccccc3)cnc2n1` [Compound 19, 2,4-diamino-6-benzylaminomethyl pteridine], for which the IC50 in assay [1] (setting [4]) was 50 µM; in assay [1] (setting [5]), 50 µM; in assay [2] (setting [6]), 123 µM; in assay [2] (setting [7]) it was 123 µM; in assay [3] (setting [8]), 118 µM; in assay [3] (setting [9]) it was 118 µM.

Turning to `CN(C)Cc1cnc2nc(N)nc(N)c2n1` [Compound 20, 2,4-diamino-6-dimethyl aminomethyl pteridine], the IC50 in assay [1] (setting [4]) was over 200 µM; in assay [1] (setting [5]) it was over 200 µM; in assay [2] (setting [6]) it was 170 µM; in assay [2] (setting [7]), 170 µM; in assay [3] (setting [8]) it was 100 µM; in assay [3] (setting [9]), 100 µM.

Regarding `CCN(CC)c1nc(N)nc2ncc(-c3ccccc3)nc12` [Compound 21, 2-amino-4-diethylamino-6-phenylpteridine], the IC50 was found to be 15 µM in assay [1] (setting [4]); 15 µM in assay [1] (setting [5]); 80 µM in assay [2] (setting [6]); 80 µM in assay [2] (setting [7]); 20 µM in assay [3] (setting [8]); 20 µM in assay [3] (setting [9]).

Turning to `CCN(CC)c1nc(N)nc2ncc(-c3ccc(Cl)cc3)nc12` [Compound 22, 2-amino-4-diethylamino-6-(4-chlorophenyl) pteridine], the IC50 in assay [1] (setting [4]) came out at 17 µM; in assay [1] (setting [5]), 17 µM; in assay [2] (setting [6]), 50 µM; in assay [2] (setting [7]), 50 µM; in assay [3] (setting [8]), 20 µM; in assay [3] (setting [9]), 20 µM.

As to `CCN(CC)c1nc(N)nc2ncc(-c3ccc(OC)cc3)nc12` [Compound 23, 2-amino-4-diethylamino-6-(4-methoxyphenyl) pteridine], the IC50 turned out to be 12 µM in assay [1] (setting [4]); 12 µM in assay [1] (setting [5]); 20 µM in assay [2] (setting [6]); 20 µM in assay [2] (setting [7]); 20 µM in assay [3] (setting [8]); 20 µM in assay [3] (setting [9]).

With `CCN(CC)c1nc(N)nc2ncc(-c3ccc(OC)c(OC)c3)nc12` [Compound 24, 2-amino-4-diethylamino-6-(3,4-dimethoxyphenyl) pteridine], the IC50 in assay [1] (setting [4]) came out at 0.08 µM; in assay [1] (setting [5]) it was 0.08 µM; in assay [2] (setting [6]), 0.5 µM; in assay [2] (setting [7]), 0.5 µM; in assay [3] (setting [8]) it was 0.1 µM; in assay [3] (setting [9]), 0.1 µM.

For the compound `Nc1nc(N(Cc2ccccc2)Cc2ccccc2)c2nc(-c3ccccc3)cnc2n1` [Compound 25, 2-amino-4-dibenzylamino-6-phenyl pteridine], the IC50 in assay [1] (setting [4]) is 75 µM; in assay [1] (setting [5]), 75 µM; in assay [2] (setting [6]), 25 µM; in assay [2] (setting [7]) it was 25 µM; in assay [3] (setting [8]), 25 µM; in assay [3] (setting [9]) it was 25 µM.

`Nc1nc(N(Cc2ccccc2)Cc2ccccc2)c2nc(-c3ccc(Cl)cc3)cnc2n1` [Compound 26, 2-amino-dibenzylamino-6-(4-chlorophenyl) pteridine]: the IC50 in assay [1] (setting [4]) came out at 100 µM; in assay [1] (setting [5]), 100 µM; in assay [2] (setting [6]), 75 µM; in assay [2] (setting [7]) it was 75 µM; in assay [3] (setting [8]), 20 µM; in assay [3] (setting [9]), 20 µM.

Take `COc1ccc(-c2cnc3nc(N)nc(N(Cc4ccccc4)Cc4ccccc4)c3n2)cc1` [Compound 27, 2-amino-4-dibenzylamino-6-(4-methoxyphenyl) pteridine]: the IC50 in assay [1] (setting [4]) turned out to be 50 µM; in assay [1] (setting [5]), 50 µM; in assay [2] (setting [6]) it was 20 µM; in assay [2] (setting [7]), 20 µM; in assay [3] (setting [8]), 15 µM; in assay [3] (setting [9]) it was 15 µM.

On to `COc1ccc(-c2cnc3nc(N)nc(N(Cc4ccccc4)Cc4ccccc4)c3n2)cc1OC` [Compound 28, 2-amino-4-dibenzylamino-6-(3,4-dimethoxyphenyl) pteridine], for which the IC50 in assay [1] (setting [4]) came to 3.5 µM; in assay [1] (setting [5]), 3.5 µM; in assay [2] (setting [6]), 4.3 µM; in assay [2] (setting [7]), 4.3 µM; in assay [3] (setting [8]) it was 3.2 µM; in assay [3] (setting [9]), 3.2 µM.

With `CCCN(CCC)c1nc(N)nc2ncc(-c3ccccc3)nc12` [Compound 29, 2-amino-4-dipropylamino-6-phenylpteridine], the IC50 in assay [1] (setting [4]) stood at 15 µM; in assay [1] (setting [5]) it was 15 µM; in assay [2] (setting [6]), 25 µM; in assay [3] (setting [8]), 25 µM; in assay [3] (setting [9]), 25 µM.

Consider `CCCN(CCC)c1nc(N)nc2ncc(-c3ccc(Cl)cc3)nc12` [Compound 30, 2-amino-4-dipropylamino-6-(4-chlorophenyl)pteridine], for which the IC50 in assay [1] (setting [4]) turned out to be 13 µM; in assay [1] (setting [5]), 13 µM; in assay [2] (setting [6]), 9.7 µM; in assay [2] (setting [7]), 9.7 µM; in assay [3] (setting [8]), 6.7 µM; in assay [3] (setting [9]), 6.7 µM.

For the compound `CCCN(CCC)c1nc(N)nc2ncc(-c3ccc(OC)cc3)nc12` [Compound 31, 2-amino-4-dipropylamino-6-(4-methoxyphenyl)pteridine], the IC50 in assay [1] (setting [4]) stood at 8.5 µM; in assay [1] (setting [5]) it was 8.5 µM; in assay [2] (setting [6]), 5.7 µM; in assay [2] (setting [7]), 5.7 µM; in assay [3] (setting [8]), 2.8 µM; in assay [3] (setting [9]), 2.8 µM.

With `CCCN(CCC)c1nc(N)nc2ncc(-c3ccc(OC)c(OC)c3)nc12` [Compound 32, 2-amino-4-dipropylamino-6-(3,4-dimethoxyphenyl)pteridine], the IC50 was 2.2 µM in assay [1] (setting [4]); 2.2 µM in assay [1] (setting [5]); 0.8 µM in assay [2] (setting [6]); 0.8 µM in assay [2] (setting [7]); 0.7 µM in assay [3] (setting [8]); 0.7 µM in assay [3] (setting [9]).
